Data from patent US7658916B2, “Methods of enhancing lysosomal storage disease therapy by modulation of cell surface receptor density” (Genzyme Corporation, priority 2002, dated 2010).
Read-outs that look alike come from different tables or passages of the source.

Key:
mannose receptor = conditions: cited from earlier work
Hep3B cells = test: CEREZYME enzyme uptake by hepatocytes (Hep3B) in vitro; assay type: cell-based; conditions: dexamethasone treatment; result in words
Description: The rat alveolar macrophage cell line NR 8383 (ATCC# CRL-2192) were cultured in Kaighn's modified F12K nutrient mixture (Gibco# 21127-002) with 2 mM L-glutamine (Gibco# 25030-081), 15% heat-inactivated fetal bovine serum (FBS) (Gibco# 16000-044) and 1× penicillin/streptomycin. Most of the cells were attached to the dish, with some in suspension. Hep3B cells were grown in MEM-eagle (Gibco# 11960-044) with Earles salts and 10% FBS, 1× non-essential amino acid (NEAA), 1× sodium pyruvate and 1× penicillin/streptomycin. Human liver sinusoidal endothelial cells (LSECS) (ACBRI#-566) were purchased from Applied Cell Biology Research Institute through Cell Systems, Inc. Cells were cultured in CS-C Media (CSC# 4Z0-500) with additional 10% FBS. During passage, the culture dishes or flasks were treated with attachment factor solution (CSC# 4Z0-210). Prior to seeding, the purity of the LSECs was confirmed by immunostaining with anti-VOA Willebrand factor (data not shown). […]
(§1) The lysates were used for glucocerebrosidase assay in duplicate or triplicate with 4-MU-beta-glucoside (Sigma# M-3633) as substrate and with CEREZYME® enzyme as standard. Proteins were quantified using a MicroBCA protein assay kit (Pierce) with BSA as standard. […]

spleen macrophages = test: CEREZYME enzyme uptake in vivo by isolated rat spleen macrophages; design: species or system Fisher rats
Description: Quantitative analysis of the dexamethasone effects on CEREZYME® enzyme uptake in vivo was performed on macrophage cells isolated from spleens through the attachment method (Gessani S, 2000 #35). Fisher rats (female, 180-200 g) were used and divided into four groups. After dexamethasone (50 μg/rat) pretreatment and CEREZYME® enzyme (or unmodified glucocerebrosidase) injection, rat spleens were excised and cut into small pieces. The total spleen cells were released by pressing between two frosted cover slides, followed by washing with 15 ml of RPMI media containing 10% heat-inactivated FBS. Red blood cells were lysed with red blood cell lysis buffer (Sigma). The rest of the splenocytes were seeded in 150-mm tissue culture dishes and incubated at 37° C. for 1 hour for the attachment isolation of macrophages. 15 ml of media were added to five 150-mm tissue culture dishes as blanks for nonspecific protein binding. After removing the cells in suspension and washing the attached cells 5 times with PBS, the attached cells were lysed in KP buffer by scrapping and assayed for glucocerebrosidase activity and protein content. The average of protein content of the blank dishes was subtracted from each cell sample. For dose response of CEREZYME® enzyme to dexamethasone, rats pretreated with dexamethasone were injected with different doses of CEREZYME® enzyme as for the control groups without dexamethasone pretreatment. Attached cells (>90% spleen macrophages) were isolated for glucocerebrosidase assay as described above. […] The absolute enzyme activity, however, was ˜220% of the control without dexamethasone treatment (FIG. 4A). The dexamethasone effects were also tested at other CEREZYME® enzyme doses at 7 U/kg and 72 U/kg respectively, which are either below or above the saturation levels (Mistry, 1996 #10). As is shown in FIG. 4B, at both doses, the dexamethasone effects were about the same and increased CEREZYME® enzyme uptake to a similar level as with 18 U/kg of CEREZYME® enzyme, namely, about 3-fold increase after dosage correction. The absolute CEREZYME® enzyme activity was ˜250% of the control sample at 72 U/kg.

[1] = system: spleen and bone marrow tissues; test: Glucocerebrosidase activity in rat spleen and bone marrow after CEREZYME enzyme injection; assay type: in vivo, Fisher rats; conditions: rats, 100 μg dexamethasone, 2.5 U CEREZYME; equals level of non-treated rats given 10 U
Description: To assess the effect of dexamethasone treatment on CEREZYME® enzyme uptake by liver macrophage (Kupffer cells) in vivo, Fisher rats (female, ˜130 g) were divided into four groups (n=3). The first and second groups of rats only received vehicle PBS without dexamethasone, and the third and fourth groups were treated with water-soluble dexamethasone sodium phosphate (American Reagent Laboratories Inc.) at 10 μg and 100 μg (diluted into 200 μl PBS) per rat through intraperitoneal injection. Four doses of dexamethasone were given over two consecutive days, one dose in early morning and one dose in late afternoon on each day. On the third day, CEREZYME® enzyme at 2.5 U per rat (˜18 U/kg) diluted in PBS was administrated into the second, third and fourth groups of rats through tail vein bolus injection. The first group was used as negative control.
Direct measurement of glucocerebrosidase activity in spleen, liver and bone marrow tissues after CEREZYME® enzyme uptake was also assessed in another set of experiments. Five groups of rats were used (n=3). The first four groups were treated in the same manner as described above, whereas the fifth group of rats was not treated with dexamethasone but received 10 U of CEREZYME® enzyme per rat and used as positive controls. […] The supernatants were saved and measured for glucocerebrosidase activity and normalized to protein content as described above.

[2] = system: rat alveolar macrophage cell line NR 8383; test: CEREZYME enzyme uptake by rat alveolar macrophage cells in vitro; assay type: cell-based
Description: The rat alveolar macrophage cell line NR 8383 (ATCC# CRL-2192) were cultured in Kaighn's modified F12K nutrient mixture (Gibco# 21127-002) with 2 mM L-glutamine (Gibco# 25030-081), 15% heat-inactivated fetal bovine serum (FBS) (Gibco# 16000-044) and 1× penicillin/streptomycin. Most of the cells were attached to the dish, with some in suspension. Hep3B cells were grown in MEM-eagle (Gibco# 11960-044) with Earles salts and 10% FBS, 1× non-essential amino acid (NEAA), 1× sodium pyruvate and 1× penicillin/streptomycin. Human liver sinusoidal endothelial cells (LSECS) (ACBRI#-566) were purchased from Applied Cell Biology Research Institute through Cell Systems, Inc. Cells were cultured in CS-C Media (CSC# 4Z0-500) with additional 10% FBS. During passage, the culture dishes or flasks were treated with attachment factor solution (CSC# 4Z0-210). Prior to seeding, the purity of the LSECs was confirmed by immunostaining with anti-VOA Willebrand factor (data not shown).
For dexamethasone or other drug treatment, the cells were incubated with the drugs under various conditions as indicated in each figure legend (FIGS. 1A-F). […]
as §1

muscle tissues [3] = system: muscle tissues; design: species or system normal mice (129 SV); conditions: mouse, in vivo, 6 mg/kg
Description: (§2) To directly evaluate the effects of insulin/glucose on alpha-galactosidase uptake in vivo, normal (129 SV, 3-4 month, male) and Fabry mice (on 129SV background, 3-4 month, male) were used for uptake assays under different conditions.
(§3) Normal mice were fasted overnight from 5 p.m. to 9 a.m. next morning, and then divided into three groups. […] The second group directly received alpha-galactosidase injection (6 mg/kg) through tail vein as bolus injection; the third group was first gavaged with 0.5 ml of 50% glucose followed by subcutaneous injection of insulin (0.25 U) on the upper back 10 minutes later, after another 45 minutes, alpha-galactosidase was injected as for the second group. Two hours after alpha-galactosidase injection, different tissues (heart, diaphragm, tongue, muscle gastrocnemius, muscle vastus laterus, muscle paraspinal) were collected and assayed for alpha-galactosidase activity after homogenization in alpha-galactosidase assay buffer plus 1% of triton and 1× protease inhibitor cocktail.

muscle tissues [4] = conditions: mouse, in vivo
Description: as §2, §3
Here, 4 groups of Fabry mice were used and similarly treated as for the normal mice. […]

[5] = system: asialoglycoprotein receptors (ASGPR); conditions: cited from earlier work
L6 myotubes = test: Alpha-galactosidase uptake by L6 myotubes in vitro; assay type: cell-based, rat; conditions: 5 mM M6P; to the endogenous level
Description: Muscles are the major target tissues for enzyme replacement therapy of Pompe disease due to the lack of acid alpha-glucosidase. To determine if the M6P/IGF-II receptor-mediated lysosomal enzyme uptake pathway can be augmented by insulin/glucose, the effects of insulin/glucose were analyzed on induced muscle cells (myotubes) in vitro. L6 myoblasts (or induced myotubes) and Hep3B cells were cultured in 6-well dishes. Rat L6 myoblasts (ATCC# CRL-1458) were cultured at 37° C. under 5% CO2 in VitaCell DMEM media (ATCC# 30-2002) with 4 mM L-glutamine, 10% fetal bovine serum (Gibco #16000-044) and 1× penicillin/streptomycin. Once confluent, cells were switched to VitaCell DMEM plus 2% horse sera (Gibco# 26050-088) and 1× penicillin/streptomycin. Media were changed every 3 days and at day 9-10, myotubes could be observed as multinuclear tubes. About 30-40% of the myoblasts formed myotubes. Cells were used for uptake assay at day 10. Hep3B cells were grown in MEM-eagle (Gibco# 11960-044) with 10% FBS, 1×NEAA, 1× sodium pyruvate and 1× penicillin/streptomycin.
Before the uptake assay, the cells were washed once with PBS and once with DMEM minus glucose media (Gibco#11966-025), then the cells were starved in 1.5 ml of DMEM minus glucose media for 1 hour at 37° C. […]

For prostaglandin E, the “enhancement of mannose receptor cell surface expression on macrophages” value (mannose receptor) is listed as 4-6 fold.

In the case of `C[C@@H]1C[C@H]2[C@@H]3CCC4=CC(=O)C=C[C@]4(C)[C@@]3(F)[C@@H](O)C[C@]2(C)[C@@]1(O)C(=O)CO` [dexamethasone], the “effect on CEREZYME enzyme uptake by hepatocytes” value (Hep3B cells) is reported as “did not significantly enhance”, the “increase in CEREZYME enzyme uptake by spleen macrophages after dosage correction” value (spleen macrophages; CEREZYME 7 U/kg and 72 U/kg) is reported as “about 3 fold” and the “absolute enzyme activity in spleen macrophages, % of control without dexamethasone” value (spleen macrophages; CEREZYME 18 U/kg) is reported as about 220%. For the same molecule, the “absolute CEREZYME enzyme activity in spleen macrophages, % of control sample” value (spleen macrophages; CEREZYME 72 U/kg) was about 250%, the “increase in CEREZYME enzyme uptake by spleen macrophages after normalizing the dose contribution” value (spleen macrophages; dexamethasone 50 μg/rat, CEREZYME 18 U/kg) was “at least 3 fold” and the “increase of total glucocerebrosidase activity in spleen” value [1] was 4 fold. For the same molecule, the “increase of CEREZYME enzyme uptake by rat alveolar macrophage cells” value ([2]; after two days, separate experiment) was 250-350%.

In the case of “alpha-galactosidase: recombinant human alpha-galactosidase, used as a model M6P-bearing lysosomal enzyme”, the “alpha-galactosidase activity in muscle tissues after injection alone” value (muscle tissues [3]) is reported as “increased its activity in all the muscle tissues”, the “alpha-galactosidase activity in tissues relative to wildtype tissues” value (muscle tissues [4]) is reported as “about similar levels” and the “increase in alpha-galactosidase activity in heart over wildtype tissue” value (muscle tissues [4]) is reported as “more than 10 fold”.

For Interferon alpha, the “inhibition of binding and uptake of asialoglycoproteins” value (“inhibition … of asialoglycoproteins” below) ([5]; after 3-6 hour treatment) is listed as 50% and the “inhibition … of asialoglycoproteins” value ([5]; after 24 hour treatment) is listed as about 100%.

For `O=P(O)(O)OC[C@H]1OC(O)[C@@H](O)[C@@H](O)[C@@H]1O` (stereo partly drawn) [M6P], the “inhibition of alpha-galactosidase uptake by myotubes” value (L6 myotubes) was “entire alpha-galactosidase uptake can be inhibited”.

B1: mouse interferon-gamma: mouse interferon-γ, species-specific down-regulator of mannose receptor expression on macrophage cells (protein, UniProt P01580 23-155, looked up)
Interferon gamma: HGTVIESLESLNNYFNSSGIDVEEKSLFLDIWRNWQKDGDMKILQSQIISFYLRLFEVLKDNQAISNNISVIESHLITTFFSNSKAKKDAFMSIAKFEVNNPQVQRQAFNELIRVVHQLLPESSLRKRKRSRC
For B1, the “effect on CEREZYME enzyme uptake by macrophage cells” value ([2]; result in words) was “did not enhance or inhibit”.

B2: interleukin-4: cytokine shown to enhance mannose receptor cell surface expression on macrophages (protein, UniProt P05112 25-153, looked up)
Interleukin-4: HKCDITLQEIIKTLNSLTEQKTLCTELTVTDIFAASKNTTEKETFCRAATVLRQFYSHHEKDTRCLGATAQQFHRHKQLIRFLKRLDRNLWGLAGLNSCPVKEANQSTLENFLERLKTIMREKYSKCSS
For B2, the “enhancement of mannose receptor cell surface expression on macrophages” value (mannose receptor) is listed as 10-15 fold.

B3: interferon-gamma: cytokine that down-regulates mannose receptors and asialoglycoprotein receptors (protein, UniProt P01579 24-161, looked up)
Interferon gamma: QDPYVKEAENLKKYFNAGHSDVADNGTLFLGILKNWKEESDRKIMQSQIVSFYFKLFKNFKDDQSIQKSVETIKEDMNVKFFNSNKKKRDDFEKLTNYSVTDLNVQRKAIHELIQVMAELSPAAKTGKRKRSQMLFRG
For B3, the “inhibition … of asialoglycoproteins” value ([5]; after 3-6 hour treatment) is given as 50% and the “inhibition … of asialoglycoproteins” value ([5]; after 24 hour treatment) is given as about 100%.
